Data reported in patent EP4206196A1, “PYRIMIDINE SUBSTITUTED DERIVATIVES AS TYK2 INHIBITORS” (Almirall S.A., priority 2021, dated 2023).
Like-named read-outs stand apart in the source and are kept apart here.

Legend:
[1] = biological target: T1, TYK2 (JH2domain-pseudokinase) (Homo sapiens, UniProt P29597); experiment: TYK2 JH2 domain binding assay (KINOMEscan)
T1 construct: TYK2 (JH2domain-pseudokinase)-tagged T7 phage strains were prepared in an E. coli host derived from the BL21 strain; made in house; host or cells: E. coli BL21-derived host (T7 phage) or HEK-293 cells
Summary of the method: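 Kd values come from nonlinear least-squares fits of 11-point 3-fold dilutions (mostly 30,000 nM top, lowered when Kd fell below 0.5 nM). Test compound competed with bead-bound biotinylated ligand for qPCR-tagged TYK2 pseudokinase (JH2) domain, shaken 1 h at room temperature, with about 1% final DMSO.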

[2] = tested on: STAT1/3 through TYK2/JAK1; experiment: IFNa induced STAT phosphorylation in HEK293 cells (SIE-bla reporter gene); type: cell-based; details: HEK293T-sie-bla cells, IFNa at EC80, 4 hours, read-out: Inhibition of IFNa induced STAT phosphorylation HEK293 cells IC50
Summary of the method: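 Read-out was FRET from a β-lactamase reporter under a SIE promoter in HEK293T cells, with substrate added after a 4 h, 37°C co-incubation of compound and EC80 IFNa and left overnight in the dark. Compounds ran as 10-point 1/5 dilutions at 0.1% final DMSO; four-parameter log fit gave IC50.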

T1 sequence (P29597 589-875 limits assumed): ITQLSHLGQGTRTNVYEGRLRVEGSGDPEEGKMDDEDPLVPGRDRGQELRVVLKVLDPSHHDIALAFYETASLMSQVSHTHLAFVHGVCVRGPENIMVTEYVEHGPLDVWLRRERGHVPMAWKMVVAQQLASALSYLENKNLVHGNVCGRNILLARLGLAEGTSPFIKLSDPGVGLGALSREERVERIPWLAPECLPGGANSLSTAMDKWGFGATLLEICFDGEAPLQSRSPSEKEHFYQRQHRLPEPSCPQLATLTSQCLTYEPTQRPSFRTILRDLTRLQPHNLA

Question: Which Kd [1] does the source give for `COc1c(Nc2cc(Nc3cc(C)nc(C)n3)ncn2)cccc1-c1nc(C)n(CC(F)(F)F)n1` [Example 38, N6-(2,6-dimethylpyrimidin-4-yl)-N4-[2-methoxy-3-[5-methyl-1-(2,2,2-trifluoroethyl)-1,2,4-triazol-3-yl]phenyl]pyrimidine-4,6-diamine] here?
Answer: The Kd was 0.2 to 1 nM.

Question: What about the IC50 ([2]; Homo sapiens, HEK293) of the same compound?
Answer: The IC50 was 10 to 100 nM.

Question: `COc1cc(-c2ncn(C)n2)ccc1Nc1cc(Nc2cc(C)nc(C)n2)ncn1` [Example 85, N6-(2,6-dimethylpyrimidin-4-yl)-N4-[2-methoxy-4-(1-methyl-1,2,4-triazol-3-yl)phenyl]pyrimidine-4,6-diamine] was tested. Which Kd [1] did it give?
Answer: The Kd was 1 to 10 nM.

Question: And the IC50 ([2]; Homo sapiens, HEK293)?
Answer: Its IC50 is 10 to 100 nM.

Question: `Cc1c(-c2cnc(Nc3cc(NC(=O)C4CC4)ncn3)c(S(C)(=O)=O)c2)cnn1C` [Example 151, N-[6-[[5-(1,5-dimethylpyrazol-4-yl)-3-methylsulfonyl-2-pyridyl]amino]pyrimidin-4-yl]cyclopropanecarboxamide] was tested. Which Kd [1] did it give?
Answer: The Kd was under 0.2 nM.

Question: What about the IC50 ([2]; Homo sapiens, HEK293) of the same compound?
Answer: Its IC50 is under 10 nM.

Question: Which Kd [1] does the source give for `CN(c1ccccc1Nc1cc(Nc2ncn(C)n2)ncn1)S(C)(=O)=O` [Example 13, N-methyl-N-[2-[[6-[(1-methyl-1,2,4-triazol-3-yl)amino]pyrimidin-4-yl]amino]phenyl]methanesulfonamide] here?
Answer: The Kd was over 10 nM.

Question: What about the IC50 ([2]; Homo sapiens, HEK293) of the same compound?
Answer: Its IC50 is over 1000 nM.

Question: What does the source list for `COc1ccccc1Nc1cc(NC(=O)C2CC2)ncn1` [Example 2, N-[6-(2-methoxyanilino)pyrimidin-4-yl]cyclopropanecarboxamide]?
Answer: Kd [1]: > 10 nM; IC50 ([2]; Homo sapiens, HEK293): > 1000 nM

Question: Which results are given for `COc1c(Nc2cc(Nc3ccc(F)cn3)ncn2)cccc1-c1ncn(C)n1` [Example 65, N4-(5-fluoro-2-pyridyl)-N6-[2-methoxy-3-(1-methyl-1,2,4-triazol-3-yl)phenyl]pyrimidine-4,6-diamine]?
Answer: Kd [1]: 0.2 to 1 nM; IC50 ([2]; Homo sapiens, HEK293): 10 to 100 nM

Question: What does the source list for `COc1cc(-c2ncc(F)cn2)ccc1Nc1cc(Nc2cc(C)nc(C)n2)ncn1` [Example 81, N4-(2,6-dimethylpyrimidin-4-yl)-N6-[4-(5-fluoropyrimidin-2-yl)-2-methoxyphenyl]pyrimidine-4,6-diamine]?
Answer: Kd [1]: > 10 nM; IC50 ([2]; Homo sapiens, HEK293): > 1000 nM

Question: Which results are given for `Cc1cc(Nc2cc(Nc3ccccc3CS(C)(=O)=O)ncn2)nc(C)n1` [Example 66, N4-(2,6-dimethylpyrimidin-4-yl)-N6-[2-(methylsulfonylmethyl)phenyl]pyrimidine-4,6-diamine]?
Answer: Kd [1]: 0.2 to 1 nM; IC50 ([2]; Homo sapiens, HEK293): 100 to 1000 nM

Question: `Cc1cc(Nc2cc(Nc3ncc(-c4ncn(C)n4)cc3N(C)S(C)(=O)=O)ncn2)nc(C)n1` [Example 123, N-[2-[[6-[(2,6-dimethylpyrimidin-4-yl)amino]pyrimidin-4-yl]amino]-5-(1-methyl-1,2,4-triazol-3-yl)-3-pyridyl]-N-methyl-methanesulfonamide] was tested. Which Kd [1] did it give?
Answer: Its Kd is 1 to 10 nM.

Question: What about the IC50 ([2]; Homo sapiens, HEK293) of the same compound?
Answer: The IC50 was 10 to 100 nM.

Question: With `Cc1cc(Nc2cc(Nc3ncc(-c4cc(C)nn4C)cc3N(C)S(C)(=O)=O)ncn2)nc(C)n1` [Example 129, N-[5-(2,5-dimethylpyrazol-3-yl)-2-[[6-[(2,6-dimethylpyrimidin-4-yl)amino]pyrimidin-4-yl]amino]-3-pyridyl]-N-methyl-methanesulfonamide] as the compound, how does the Kd [1] read?
Answer: The Kd was under 0.2 nM.

Question: What about the IC50 ([2]; Homo sapiens, HEK293) of the same compound?
Answer: The IC50 was 10 to 100 nM.

Question: With “N4-(2,6-dimethylpyrimidin-4-yl)-N6-[4-(3-methylimidazol-4-yl)-2-methylsulfonyl-phenyl]pyrimidine-4,6-diamine [Example 26]” as the compound, how does the Kd [1] read?
Answer: Its Kd is 0.2 to 1 nM.

Question: And the IC50 [2]?
Answer: The IC50 was 100 to 1000 nM.

Question: For `COc1c(C)ccnc1Nc1cc(Nc2cc(C)nc(C)n2)ncn1` [Example 132, N4-(2,6-dimethylpyrimidin-4-yl)-N6-(3-methoxy-4-methyl-2-pyridyl)pyrimidine-4,6-diamine], which Kd [1] is on record?
Answer: The Kd was 0.2 to 1 nM.

Question: And the IC50 ([2]; Homo sapiens, HEK293)?
Answer: The IC50 was 100 to 1000 nM.

Question: `Cc1ccc(Nc2cc(Nc3ncc(-c4cnn(C)c4C)cc3N(C)S(C)(=O)=O)ncn2)nn1` [Example 158, N-[5-(1,5-dimethylpyrazol-4-yl)-2-[[6-[(6-methylpyridazin-3-yl)amino]pyrimidin-4-yl]amino]-3-pyridyl]-N-methyl-methanesulfonamide] was tested. Which Kd [1] did it give?
Answer: The Kd was under 0.2 nM.

Question: And the IC50 ([2]; Homo sapiens, HEK293)?
Answer: The IC50 was 10 to 100 nM.

Question: Which results are given for `COc1c(Nc2cc(Nc3cc(C)nc(C)n3)ncn2)ccc(C)c1-c1ncn(C)n1` [Example 63, 6-N-(2,6-dimethylpyrimidin-4-yl)-4-N-[2-methoxy-4-methyl-3-(1-methyl-1,2,4-triazol-3-yl)phenyl]pyrimidine-4,6-diamine]?
Answer: Kd [1]: 0.2 to 1 nM; IC50 ([2]; Homo sapiens, HEK293): 10 to 100 nM

Question: What does the source list for `COc1c(Nc2cc(Nc3cc(C)ncn3)ncn2)cccc1-c1ncn(C)n1` [Example 33, N6-[2-methoxy-3-(1-methyl-1,2,4-triazol-3-yl)phenyl]-N4-(6-methylpyrimidin-4-yl)pyrimidine-4,6-diamine]?
Answer: Kd [1]: < 0.2 nM; IC50 ([2]; Homo sapiens, HEK293): 10 to 100 nM

Question: With `COc1c(Nc2cc(Nc3cc(C)nc(C)n3)ncn2)cccc1-c1nc(C)n(C2COC2)n1` [Example 49, N4-(2,6-dimethylpyrimidin-4-yl)-N6-[2-methoxy-3-[5-methyl-1-(oxetan-3-yl)-1,2,4-triazol-3-yl]phenyl]pyrimidine-4,6-diamine] as the compound, how does the Kd [1] read?
Answer: Its Kd is 0.2 to 1 nM.

Question: And the IC50 ([2]; Homo sapiens, HEK293)?
Answer: The IC50 was over 1000 nM.

Question: Which results are given for `COc1c(Nc2cc(Nc3cc(C)nc(C)n3)ncn2)cccc1-c1ncn(CC2COC2)n1` [Example 51, N6-(2,6-dimethylpyrimidin-4-yl)-N4-[2-methoxy-3-[1-(oxetan-3-ylmethyl)-1,2,4-triazol-3-yl]phenyl]pyrimidine-4,6-diamine]?
Answer: Kd [1]: < 0.2 nM; IC50 ([2]; Homo sapiens, HEK293): 10 to 100 nM

Question: Which Kd [1] does the source give for `Cc1cc(Nc2cc(Nc3nccc(C)c3N(C)S(C)(=O)=O)ncn2)nc(C)n1` [Example 61, N-(2-((6-((2,6-dimethylpyrimidin-4-yl)amino)pyrimidin-4-yl)amino)-4-methylpyridin-3-yl)-N-methylmethanesulfonamide] here?
Answer: Its Kd is 1 to 10 nM.

Question: What about the IC50 ([2]; Homo sapiens, HEK293) of the same compound?
Answer: Its IC50 is 100 to 1000 nM.

Question: `Cc1cc(Nc2cc(Nc3nc(C)c(-c4cnn(C)c4C)cc3N(C)S(C)(=O)=O)ncn2)ncn1` [Example 163, N-[5-(1,5-dimethylpyrazol-4-yl)-6-methyl-2-[[6-[(6-methylpyrimidin-4-yl)amino]pyrimidin-4-yl]amino]-3-pyridyl]-N-methyl-methanesulfonamide] was tested. Which Kd [1] did it give?
Answer: The Kd was under 0.2 nM.

Question: And the IC50 ([2]; Homo sapiens, HEK293)?
Answer: Its IC50 is under 10 nM.

Question: Which Kd [1] does the source give for `Cc1cc(Nc2cc(Nc3ncc(-c4nc(C)nn4C)cc3N(C)S(C)(=O)=O)ncn2)ncn1` [Example 155, N-[5-(2,5-dimethyl-1,2,4-triazol-3-yl)-2-[[6-[(6-methylpyrimidin-4-yl)amino]pyrimidin-4-yl]amino]-3-pyridyl]-N-methyl-methanesulfonamide] here?
Answer: The Kd was 0.2 to 1 nM.

Question: And the IC50 ([2]; Homo sapiens, HEK293)?
Answer: Its IC50 is 100 to 1000 nM.

Question: What does the source list for `CN(c1ccccc1Nc1cc(Nc2ccc(C#N)cn2)ncn1)S(C)(=O)=O` [Example 102, N-[2-[[6-[(5-cyano-2-pyridyl)amino]pyrimidin-4-yl]amino]phenyl]-N-methyl-methanesulfonamide]?
Answer: Kd [1]: 0.2 to 1 nM; IC50 ([2]; Homo sapiens, HEK293): 10 to 100 nM

Question: What does the source list for `Cc1cc(Nc2cc(Nc3ccc(C4=CCCCO4)cc3N(C)S(C)(=O)=O)ncn2)nc(C)n1` [Example 92, N-[5-(3,4-dihydro-2H-pyran-6-yl)-2-[[6-[(2,6-dimethylpyrimidin-4-yl)amino]pyrimidin-4-yl]amino]phenyl]-N-methylmethanesulfonamide]?
Answer: Kd [1]: < 0.2 nM; IC50 ([2]; Homo sapiens, HEK293): < 10 nM

Question: Which results are given for `Cc1cc(Nc2cc(Nc3nccc(C)c3S(C)(=O)=O)ncn2)nc(C)n1` [Example 150, N4-(2,6-dimethylpyrimidin-4-yl)-N6-(4-methyl-3-methylsulfonyl-2-pyridyl)pyrimidine-4,6-diamine]?
Answer: Kd [1]: < 0.2 nM; IC50 ([2]; Homo sapiens, HEK293): < 10 nM

Question: For `Cc1cc(Nc2cc(Nc3cc(F)ccc3N(C)S(C)(=O)=O)ncn2)nc(C)n1` [Example 75, N-[2-[[6-[(2,6-dimethylpyrimidin-4-yl)amino]pyrimidin-4-yl]amino]-4-fluorophenyl]-N-methylmethanesulfonamide], which Kd [1] is on record?
Answer: Its Kd is under 0.2 nM.

Question: And the IC50 ([2]; Homo sapiens, HEK293)?
Answer: Its IC50 is 10 to 100 nM.

Question: With `COc1c(-c2noc(C(F)(F)F)n2)ccnc1Nc1cc(Nc2cc(C)nc(C)n2)ncn1` [Example 143, N6-(2,6-dimethylpyrimidin-4-yl)-N4-[3-methoxy-4-[5-(trifluoromethyl)-1,2,4-oxadiazol-3-yl]-2-pyridyl]pyrimidine-4,6-diamine] as the compound, how does the Kd [1] read?
Answer: Its Kd is 1 to 10 nM.

Question: And the IC50 ([2]; Homo sapiens, HEK293)?
Answer: Its IC50 is over 1000 nM.

Question: Which results are given for `Cc1cc(C)c(N(C)S(C)(=O)=O)c(Nc2cc(Nc3cc(C)ncn3)ncn2)c1` [Example 100, N-[2,4-dimethyl-6-[[6-[(6-methylpyrimidin-4-yl)amino]pyrimidin-4-yl]amino]phenyl]-N-methylmethanesulfonamide]?
Answer: Kd [1]: > 10 nM; IC50 ([2]; Homo sapiens, HEK293): > 1000 nM

Question: What does the source list for `Cc1cc(Nc2cc(Nc3ccc(-c4nc(C)n(C)n4)cc3N(C)S(C)(=O)=O)ncn2)nc(C)n1` [Example 97, N-[2-[[6-[(2,6-dimethylpyrimidin-4-yl)amino]pyrimidin-4-yl]amino]-5-(1,5-dimethyl-1,2,4-triazol-3-yl)phenyl]-N-methyl-methanesulfonamide]?
Answer: Kd [1]: < 0.2 nM; IC50 ([2]; Homo sapiens, HEK293): 10 to 100 nM

Question: Which Kd [1] does the source give for `COc1c(Nc2cc(Nc3cc(C)nc(C)n3)ncn2)ccc(-c2cnn(C)c2C)c1C` [Example 84, N4-[4-(1,5-dimethylpyrazol-4-yl)-2-methoxy-3-methyl-phenyl]-N6-(2,6-dimethylpyrimidin-4-yl)pyrimidine-4,6-diamine] here?
Answer: The Kd was under 0.2 nM.

Question: And the IC50 ([2]; Homo sapiens, HEK293)?
Answer: The IC50 was 10 to 100 nM.

Question: Which Kd [1] does the source give for `Cc1cc(Nc2cc(Nc3ncc(-c4cnn(C)c4C)cc3NS(C)(=O)=O)ncn2)nc(C)n1` [Example 144, N-[5-(1,5-dimethylpyrazol-4-yl)-2-[[6-[(2,6-dimethylpyrimidin-4-yl)amino]pyrimidin-4-yl]amino]-3-pyridyl]methanesulfonamide] here?
Answer: The Kd was under 0.2 nM.

Question: And the IC50 ([2]; Homo sapiens, HEK293)?
Answer: Its IC50 is 10 to 100 nM.
